In patent US20140296065A1, “USE OF 5-FLUOROCYTOSINE AS A FUNGICIDE” (DOW AGROSCIENCES LLC, priority 2008, published 2014):
Where two headings read alike, the source gives them in different places.

Columns and labels:
Type in all cases: in vivo
[1] = system: Mycosphaerella graminicola; anamorph: Septoria tritici; Bayer code SEPTTR; assay: Leaf Blotch of Wheat fungicidal activity; conditions: for pest or weed control at 100 ppm: Zymoseptoria tritici
Protocol: (§1) For the following examples, 5-fluorocytosine or a 5-fluorocytosine derivative was either dissolved in acetone or water, and dilutions were performed to obtain desirable rates. The spray solutions contained either 0.01% triton X-100 or 0.1% Trycol 5941. For high-volume spray, plants were sprayed to run-off using an automated booth sprayer. For a low-volume test, fungicide was applied using a track sprayer with application volume of 200 liters/hectare (L/H).
(§2) Plants were inoculated with fungal pathogens either 3 days before compound application (3-day curative test; 3DC) or 1 day after compound application (1-day protectant test; 1DP).
• 1. Evaluation of Fungicidal Activity: Leaf Blotch of Wheat (Mycosphaerella graminicola; anamorph: Septoria tritici; Bayer code SEPTTR):
Wheat plants (variety Yuma) were grown from seed in a greenhouse in 50% mineral soil/50% soil-less Metro mix until the first leaf was fully emerged, with 7-10 seedlings per pot. These plants were inoculated with an aqueous spore suspension of Septoria tritici either prior to or after fungicide treatments. After inoculation the plants were kept in 100% relative humidity (one day in a dark dew chamber followed by two to three days in a lighted dew chamber) to permit spores to germinate and infect the leaf. The plants were then transferred to a greenhouse for disease to develop. • 2. Evaluation of Fungicidal Activity: Glume Blotch of Wheat (Leptosphaeria nodorum; Bayer code LEPTNO; anamorph: Stagonospora nodorum):
(§3) The following tables present the activity of 5-fluorocytosine (Table I) or a 5-fluorocytosine derivative (Table II) when evaluated in these experiments. The effectiveness of 5-fluorocytosine or 5-fluorocytosine derivative in controlling disease was determined by assessing the severity of disease on treated plants, then converting the severity to percent control based on the level of disease on untreated, inoculated plants. • In each case of Tables I and II the rating scale is as follows: […]

[2] = system: Venturia inaequalis; Bayer code VENTIN; assay: Apple Scab fungicidal activity; conditions: 75 ppm
[3] = system: Glomerella lagenarium; anamorph: Colletotrichum lagenarium; Bayer code COLLLA; assay: Cucumber Anthracnose fungicidal activity; conditions: 200 ppm, 1DP (1-day protectant)
[4] = system: Cercospora beticola; Bayer code CERCBE; assay: Leaf Spot of Sugar Beets fungicidal activity; conditions: 100 ppm, 1DP (1-day protectant)
[5] = system: Mycosphaerella fijiensis; BAYER code MYCOFI; assay: Black Sigatoka Disease of Banana fungicidal activity
Protocol: as §1
Plants were inoculated with fungal pathogens either 3 days before compound application (3-day curative test; 3DC) or 1 day after compound application (1-day protectant test; 1DP). […]
Efficacy against Mycosphaerella fijiensis was tested using newly emerged leaves of field grown banana plants. […] The leaves were subsequently allowed to become infected by natural inoculum, and were visually assessed for percent disease control ˜40-45 days later.
as §3

[6] = system: Cochliobolus sativum; Bayer code COCHSA; anamorph: Helminthosporium sativum; assay: Spot Blotch of Barley fungicidal activity; conditions: 200 ppm, 1DP (1-day protectant)
Protocol: For the following examples, 5-fluorocytosine or a 5-fluorocytosine derivative was either dissolved in acetone or water, and dilutions were performed to obtain desirable rates. The spray solutions contained either 0.01% triton X-100 or 0.1% Trycol 5941. For high-volume spray, plants were sprayed to run-off using an automated booth sprayer. For a low-volume test, fungicide was applied using a track sprayer with application volume of 200 liters/hectare (L/H). Plants were inoculated with fungal pathogens either 3 days before compound application (3-day curative test; 3DC) or 1 day after compound application (1-day protectant test; 1DP). […] Evaluation of Fungicidal Activity: Leaf Spot of Sugar Beets (Cercospora beticola; Bayer code CERCBE): The following tables present the activity of 5-fluorocytosine (Table I) or a 5-fluorocytosine derivative (Table II) when evaluated in these experiments. The effectiveness of 5-fluorocytosine or 5-fluorocytosine derivative in controlling disease was determined by assessing the severity of disease on treated plants, then converting the severity to percent control based on the level of disease on untreated, inoculated plants. • In each case of Tables I and II the rating scale is as follows: […]

[7] = system: Leptosphaeria nodorum; Bayer code LEPTNO; anamorph: Stagonospora nodorum; assay: Glume Blotch of Wheat fungicidal activity; conditions: 100 ppm
Protocol: as §1, §2
Wheat plants (variety Yuma) were grown from seed in a greenhouse in 50% mineral soil/50% soil-less Metro mix until the first leaf was fully emerged, with 7-10 seedlings per pot. […]
as §3

[8] = 24 h, SEPTTR, wheat, 100 ppm, One-Day Protectant (1DP), % disease control rating, read-out: SEPTTR 100 PPM 1DP
[9] = 72 h, SEPTTR, wheat, 100 ppm, Three-Day Curative (3DC), % disease control rating, read-out: SEPTTR 100 PPM 3DC
[10] = 24 h, read-out: SEPTTR 100 PPM 1DP
[11] = 72 h, read-out: SEPTTR 100 PPM 3DC

| SMILES | pest or weed control at 100 ppm [1, 8] | pest or weed control at 100 ppm [1, 9] | also measured |
| --- | --- | --- | --- |
| CCCCCOC(=O)Nc1nc(O)ncc1F [Cmpd 19] | 0 to 25% | 0 to 25% |  |
| CCC(=O)Nc1nc(O)ncc1F [Cmpd 3] | 76 to 100% | 76 to 100% |  |
| O=C(Nc1nc(O)ncc1F)c1ccccc1 [Cmpd 12] | 76 to 100% | 76 to 100% |  |
| CC(=O)Nc1nc(O)ncc1F [Cmpd 2] | 76 to 100% | 76 to 100% |  |
| Cc1ccc(C(=O)Nc2nc(O)ncc2F)cc1 [Cmpd 5] | 76 to 100% | 51 to 75% |  |
| CNc1nc(O)ncc1F [Cmpd 18] | 0 to 25% | 51 to 75% |  |
| O=C(Nc1nc(O)ncc1F)c1ccccc1Cl [Cmpd 24] | 26 to 50% | 26 to 50% |  |
| Nc1nc(=O)[nH]cc1F [5-FC, 5-Fluorocytosine] |  |  | % Disease Control of 5-FC ([2]; 1DP (1-day protectant)): A (76-100); % Disease Control of 5-FC ([2]; 3DC (3-day curative)): A (76-100); % Disease Control of 5-FC [3]: A (76-100); % Disease Control of 5-FC [4]: A (76-100); % Disease Control of 5-FC ([1]; SEPTTR, wheat, 100 ppm, 3DC (3-day curative)): A (76-100); % Disease Control of 5-FC ([1]; SEPTTR, wheat, 200 ppm, 1DP (1-day protectant)): A (76-100); % Disease Control of 5-FC ([5]; 100 ppm, 3DC (3-day curative)): B (51-75); % Disease Control of 5-FC ([5]; 200 ppm, 1DP (1-day protectant)): B (51-75); % Disease Control of 5-FC [6]: C (26-50); % Disease Control of 5-FC ([7]; 1DP (1-day protectant)): D (0-25); % Disease Control of 5-FC ([7]; 3DC (3-day curative)): C (26-50) |
| CCC(CC)C(=O)Nc1nc(O)ncc1F [Cmpd 10] | 26 to 50% | 0 to 25% |  |
| O=C(Nc1nc(O)ncc1F)c1cccc(Br)c1 [Cmpd 23] | 26 to 50% | 0 to 25% |  |
| CCONc1nc(O)ncc1F [Cmpd 17] | 26 to 50% | 76 to 100% |  |
| COc1ccccc1C(=O)Nc1nc(O)ncc1F [Cmpd 22] | 0 to 25% | 0 to 25% |  |
| COC(=O)Nc1nc(O)ncc1F [Cmpd 14] | 26 to 50% | 0 to 25% |  |
| Cc1ccc(OC(=O)Nc2nc(O)ncc2F)cc1 [Cmpd 15] |  |  | pest or weed control at 100 ppm [1, 10]: 76 to 100%; pest or weed control at 100 ppm [1, 11]: 51 to 75% |
| CCCCCCCCCCCC(=O)Nc1nc(O)ncc1F [Cmpd 9] | 76 to 100% | 26 to 50% |  |
| CCCCCC(=O)Nc1nc(O)ncc1F [Cmpd 8] | 76 to 100% | 76 to 100% |  |
| CC(C)COC(=O)Nc1nc(O)ncc1F [Cmpd 7] | 51 to 75% | 51 to 75% |  |
| COc1cccc(C(=O)Nc2nc(O)ncc2F)c1 [Cmpd 21] | 0 to 25% | 0 to 25% |  |
| CCCC(=O)Nc1nc(O)ncc1F [Cmpd 11] | 76 to 100% | 76 to 100% |  |
| CC(C)(C)C(=O)Nc1nc(O)ncc1F [Cmpd 4] | 76 to 100% | 76 to 100% |  |
| O=C(Nc1nc(O)ncc1F)Oc1ccccc1 [Cmpd 16] |  |  | pest or weed control at 100 ppm [1, 10]: 76 to 100%; pest or weed control at 100 ppm [1, 11]: 76 to 100% |
| COc1ccc(C(=O)Nc2nc(O)ncc2F)cc1 [Cmpd 20] | 0 to 25% | 0 to 25% |  |
| O=C(Nc1nc(O)ncc1F)c1ccc(Cl)cc1 [Cmpd 6] | 76 to 100% | 26 to 50% |  |
| CC(C)C(=O)Nc1nc(O)ncc1F [Cmpd 13] | 76 to 100% | 76 to 100% |  |
